For this assay, the target named is T1, human oxytocin receptor (Homo sapiens, UniProt P30559).
T1 construct: host or cells: CHO cells, stably transfected (pcDNA3.1 vector)
T1 sequence (P30559 1-389): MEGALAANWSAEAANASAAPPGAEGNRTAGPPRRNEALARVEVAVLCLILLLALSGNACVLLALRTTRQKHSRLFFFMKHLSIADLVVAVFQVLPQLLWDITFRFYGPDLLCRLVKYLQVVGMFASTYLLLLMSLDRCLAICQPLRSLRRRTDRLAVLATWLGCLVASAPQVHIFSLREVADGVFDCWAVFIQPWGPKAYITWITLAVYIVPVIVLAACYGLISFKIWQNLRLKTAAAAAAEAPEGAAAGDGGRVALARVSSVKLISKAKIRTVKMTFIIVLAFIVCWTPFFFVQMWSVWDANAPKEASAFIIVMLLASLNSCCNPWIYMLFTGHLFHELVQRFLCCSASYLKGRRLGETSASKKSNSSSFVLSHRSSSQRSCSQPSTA
The assay can be described thus: Oxytocin binding in CHO cell membranes expressing human oxytocin receptors ([3H]oxytocin radioligand binding). The settings on record: 100 nM, read-out: OT % inhibition @ 100 nM. As to the method: Oxytocin Binding in Chinese Hamster Ovary Cell Membranes Expressing Human Oxytocin Receptors
Cell Culture medium (e.g. 30 mL for 1:30 split) is immediately added and mixed well to inactivate trypsin. 1 mL of detached cells is added to new culture flasks containing fresh Cell Culture medium (e.g. into 25 mL per T-150 flask), and mixed gently. The cells are incubated at 37° C. in 5% CO2. The medium is changed at 3 to 4 days interval (or as appropriate). […] All steps are done under sterile conditions.
The cells are washed twice gently with Hank's Balanced Salt solution (e.g., use 10 mL per T-150 flask). […] The contents are transferred to centrifuge tubes (50 mL size) kept in ice bath. All subsequent steps are done at 4° C. The tubes are centrifuged at 300×g for 15 min (1380 rpm on SORVAL, Model RT6000D, using rotor for 50 mL tubes). The supernatant is discarded and the cells suspended in homogenizing buffer (10 mM Tris-HCl containing 0.25 M sucrose and 1 mM EDTA, pH 7.4) ensuring that the volume of the buffer is about ten times the volume of the cell pellet. The cells are pooled into a centrifuge tube (50 mL) and homogenized with a Polytron at setting 6 for 10 sec. The homogenate is transferred into a Potter-Elvjehm homogenizer and homogenized with 3 strokes. The homogenate is centrifuged at 1500×g for 10 min at 4° C. (3100 rpm using SORVAL, model RT6000D, using a rotor for 50 mL tubes). The pellet is discarded. The supernatant is centrifuged at 100,000×g for 60 min. at 4° C. (Beckman L8-80M ultracentrifuge; spin at 37,500 rpm with rotor type 70 Ti for 50 mL tubes; 38,000 rpm with rotor type 8OTi for 15 mL tubes; or 35,800 rpm with rotor type 45Ti). The supernantant is discarded and the pellet suspended in 3 to 4 mL of Tris buffer (50 mM TRIS-HCl, pH 7.4). The protein content is estimated by the Bradford or Lowry method. The volume of the membrane suspension is adjusted with the membrane buffer (50 mM Tris-HCl containing 0.1% BSA and 0.1 mM PMSF) to give 3.0 mg/mL (or as appropriate) of protein. The membranes are aliquoted and stored at −70° C.
In wells of a 96-well format microtiter plate, is added 90, 110 or 130 μL (to make up a final volume of 200 μL) of assay buffer containing 50 mM of Tris-HCl (pH 7.4), […], 1 mg % aprotinin, 1 mg % leupeptin, 2 mg % 1,10-phenanthroline, 10 mg % trypsin inhibitor, and 0.1 mM PMSF. The inhibitors are added on the day of the experiment. The components are mixed at room temperature, and then kept in ice bath following adjustment of the pH to 7.4. […] For oxytocin and other peptide ligands, 20 μL of 50% DMSO is added and the assay buffer volume is adjusted accordingly. To each well is added 50 μL of frozen membrane suspension thawed immediately prior to use and diluted in assay buffer to the required concentration (equivalent to 25 to 50 μg of protein/well as needed). 20 μL of 8 nM [^3H]oxytocin in the assay buffer, prepared just before use is added and incubated at room temperature for 60 min. shaking the plate on a mechanical shaker for the first 15 min. The incubation is stopped by rapid filtration of the plate contents followed by washing with ice-cold buffer (50 mM Tris-HCl, pH 7.4) using a cell harvester (Tomtek and Printed filtermat-B filter paper). The filter paper is thoroughly dried (7–12 min. in a microwave oven) and impregnated with MeltiLex B/H melt-on scintillation wax sheets and the radioactivity counted in a betaplate scintillation counter.
Binding data is either reported as percent inhibition at a certain concentration or if an IC50 was calculated, as a nanomolar concentration.
A word on the inhibition: it is the change of the read-out against control, counted positive when it falls. With `COc1ccccc1-c1ccc(C(=O)N2Cc3ccc(C(=O)NCc4ccccn4)n3Cc3ccccc32)cc1C` [Example 24, 10-[(2′-Methoxy-2-methyl-[1,1′-biphenyl]-4-yl)carbonyl]-N-(2-pyridinylmethyl)-10,11-dihydro-5H-pyrrolo[2,1-c][1,4]benzodiazepine-3-carboxamide], the inhibition at 0.1 µM turned out to be 50%. Turning to `COc1cccc(-c2ccc(C(=O)N3Cc4ccc(C(=O)NCc5ccccn5)n4Cc4ccccc43)cc2C)c1` [Example 25, 10-[(3′-Methoxy-2-methyl-[1,1′-biphenyl]-4-yl)carbonyl]-N-(2-pyridinylmethyl)-10,11-dihydro-5H-pyrrolo[2,1-c][1,4]benzodiazepine-3-carboxamide], the inhibition at 0.1 µM came out at 50%. Regarding `COc1ccccc1-c1ccc(C(=O)N2Cc3ccc(C(=O)NCc4ccccn4)n3Cc3ccccc32)cc1` [Example 26, 10-[(2′-Methoxy-[1,1′-biphenyl]-4-yl)carbonyl]-N-(2-pyridinylmethyl)-10,11-dihydro-5H-pyrrolo[2,1-c][1,4]benzodiazepine-3-carboxamide], the inhibition at 0.1 µM was found to be 47%. As for `Cc1ccccc1-c1ccc(C(=O)N2Cc3ccc(C(=O)NCc4ccccn4)n3Cc3ccccc32)cc1` [Example 27, 10-[(2′-Methyl-[1,1′-biphenyl]-4-yl)carbonyl]-N-(2-pyridinylmethyl)-10,11-dihydro-5H-pyrrolo[2,1-c][1,4]benzodiazepine-3-carboxamide], the inhibition at 0.1 µM was found to be 22%. As for `COc1cc(C(=O)N2Cc3ccc(C(=O)NCc4ccccn4)n3Cc3ccccc32)ccc1-c1ccccc1C` [Example 28, 10-[(2-Methoxy-2′-methyl-[1,1′-biphenyl]-4-yl)carbonyl]-N-(2-pyridinylmethyl)-10,11-dihydro-5H-pyrrolo[2,1-c][1,4]benzodiazepine-3-carboxamide], the inhibition at 0.1 µM was 50%. For `COc1cc(-c2ccccc2C)c(Cl)cc1C(=O)N1Cc2ccc(C(=O)NCc3ccccn3)n2Cc2ccccc21` [Example 29, 10-[(6-Chloro-3-methoxy-2′-methyl-[1,1′-biphenyl]-4-yl)carbonyl]-N-(2-pyridinylmethyl)-10,11-dihydro-5H-pyrrolo[2,1-c][1,4]benzodiazepine-3-carboxamide], the inhibition at 0.1 µM was determined as 42%. Regarding `COc1cccc(-c2cc(OC)c(C(=O)N3Cc4ccc(C(=O)NCc5ccccn5)n4Cc4ccccc43)cc2Cl)c1` [Example 30, 10-[(6-Chloro-3,3′-dimethoxy-[1,1′-biphenyl]-4-yl)carbonyl]-N-(2-pyridinylmethyl)-10,11-dihydro-5H-pyrrolo[2,1-c][1,4]benzodiazepine-3-carboxamide], the inhibition at 0.1 µM stood at 25%. `COc1cc(C(=O)N2Cc3ccc(C(=O)NCc4ccccn4)n3Cc3ccccc32)ccc1-c1cccc2ccccc12` [Example 31, 10-[3-Methoxy-4-(naphthalen-1-yl)benzoyl]-N-(2-pyridinylmethyl)-10,11-dihydro-5H-pyrrolo[2,1-c][1,4]benzodiazepine-3-carboxamide]: the inhibition at 0.1 µM turned out to be 18%.

As for `COc1ccccc1-c1ccc(C(=O)N2Cc3ccc(C(=O)NCc4ccccn4)n3Cc3ccccc32)cc1OC` [Example 32, 10-[(2,2′-Dimethoxy-[1,1′-biphenyl]-4-yl)carbonyl]-N-(2-pyridinylmethyl)-10,11-dihydro-5H-pyrrolo[2,1-c][1,4]benzodiazepine-3-carboxamide], the inhibition at 0.1 µM came out at 47%. Turning to `COc1cccc(-c2ccc(C(=O)N3Cc4ccc(C(=O)NCc5ccccn5)n4Cc4ccccc43)cc2OC)c1` [Example 33, 10-[(2,3′-Dimethoxy-[1,1′-biphenyl]-4-yl)carbonyl]-N-(2-pyridinylmethyl)-10,11-dihydro-5H-pyrrolo[2,1-c][1,4]benzodiazepine-3-carboxamide], the inhibition at 0.1 µM was determined as 42%.

For the compound `O=C(NCc1ccccn1)c1ccc2n1Cc1ccccc1N(C(=O)c1ccc(-c3cccc4ccccc34)cc1Cl)C2` [Example 34, 10-[2-Chloro-4-(naphthalen-1-yl)benzoyl]-N-(2-pyridinylmethyl)-10,11-dihydro-5H-pyrrolo[2,1-c][1,4]benzodiazepine-3-carboxamide], the inhibition at 0.1 µM stood at 5%.

For `Cc1cc(C(=O)N2Cc3ccc(C(=O)NCc4ccccn4)n3Cc3ccccc32)ccc1-c1ccccc1C(F)(F)F` [Example 35, 10-{[2-Methyl-2′-trifluoromethyl-[1,1′-biphenyl]-4-yl]carbonyl}-N-(2-pyridinylmethyl)-10,11-dihydro-5H-pyrrolo[2,1-c][1,4]benzodiazepine-3-carboxamide], the inhibition at 0.1 µM is 27%. In the case of `COc1ccccc1-c1ccc(C(=O)N2Cc3ccc(C(=O)NCc4cccnc4)n3Cc3ccccc32)cc1C` [Example 36, 10-[(2′-Methoxy-2-methyl-[1,1′-biphenyl]-4-yl)carbonyl]-N-(3-pyridinylmethyl)-10,11-dihydro-5H-pyrrolo[2,1-c][1,4]benzodiazepine-3-carboxamide], the inhibition at 0.1 µM is 46%. As for `Cc1ccccc1-c1ccc(C(=O)N2Cc3ccc(C(=O)NCc4cccnc4)n3Cc3ccccc32)cc1C` [Example 37, 10-[(2,2′-Dimethyl-[1,1′-biphenyl]-4-yl)carbonyl]-N-(3-pyridinylmethyl)-10,11-dihydro-5H-pyrrolo[2,1-c][1,4]benzodiazepine-3-carboxamide], the inhibition at 0.1 µM was found to be 60%. With `COc1cccc(-c2ccc(C(=O)N3Cc4ccc(C(=O)NCc5cccnc5)n4Cc4ccccc43)cc2C)c1` [Example 38, 10-[(3′-Methoxy-2-methyl-[1,1′-biphenyl]-4-yl)carbonyl]-N-(3-pyridinylmethyl)-10,11-dihydro-5H-pyrrolo[2,1-c][1,4]benzodiazepine-3-carboxamide], the inhibition at 0.1 µM amounted to 26%.

`COc1ccccc1-c1ccc(C(=O)N2Cc3ccc(C(=O)NCc4cccnc4)n3Cc3ccccc32)cc1` [Example 39, 10-[(2′-Methoxy-[1,1′-biphenyl]-4-yl)carbonyl]-N-(3-pyridinylmethyl)-10,11-dihydro-5H-pyrrolo[2,1-c][1,4]benzodiazepine-3-carboxamide]: the inhibition at 0.1 µM came out at 35%. The figure for `Cc1ccccc1-c1ccc(C(=O)N2Cc3ccc(C(=O)NCc4cccnc4)n3Cc3ccccc32)cc1` [Example 40, 10-[(2′-Methyl-[1,1′-biphenyl]-4-yl)carbonyl]-N-(3-pyridinylmethyl)-10,11-dihydro-5H-pyrrolo[2,1-c][1,4]benzodiazepine-3-carboxamide] is 17%. The figure for `COc1cc(C(=O)N2Cc3ccc(C(=O)NCc4cccnc4)n3Cc3ccccc32)ccc1-c1ccccc1C` [Example 41, 10-[(2-Methoxy-2′-methyl-[1,1′-biphenyl]-4-yl)carbonyl]-N-(3-pyridinylmethyl)-10,11-dihydro-5H-pyrrolo[2,1-c][1,4]benzodiazepine-3-carboxamide] is 41%.

The record behind these values is US7064120B2, “Tricyclic pyridyl carboxamides and derivatives thereof tocolytic oxytocin receptor antagonists” (Wyeth, priority 2001, dated 2006).
